# Measurements: patent US8673554B2, “Multiplex cell signalling assays” (Ge Healthcare UK Limited, priority 2008, dated 2014)
# Tests used:
# Format in all cases: cell-based, human
# U2OS cells [1] = assay: Calcium transient (Fluo-4 fluorescence) in stimulated U2OS cells, IN Cell Analyzer 1000; conditions: for cytosolic intracellular calcium (emitted fluorescence of Fluo-4): test agent 1.56-100 μM, over eight minutes, peak and decline, dose dependent, FIG. 1 / FIG. 4
# Method: i) U2OS cells were seeded into 96-well Greiner cluster plates at 6000 cell/well in 100 μl of complete McKoys media and incubated overnight at 37° C., 5% CO2.
# ii) Loading buffer was prepared with 42.8 ml of calcium flux buffer with 6.65 ml of 7.5% albumin This buffer was stored at 37° C.
# iii) 120 ml of maintenance buffer was prepared with 118.16 ml calcium flux buffer and 1840 μl of 7.5% albumin
# U2OS cells [2] = assay: Cell-associated IL-6, chemiluminescent anti-IL-6-HRP assay on LEADSEEKER imaging system, same cells after the calcium transient; conditions: after stimulation (A23187 4 hours, histamine overnight); FIG. 3 / FIG. 5
# Method: Cells were contacted with the test agent (calcium ionophore A23187) for 4 hours and cell-associated IL-6 measured post cell-stimulation with the test agent. After stimulation, the cell supernatant was decanted, the cells were washed thoroughly X3 with PBS, before incubating with the anti-IL-6 antibody. The cells were washed ×3 with PBS before addition of the chemiluminescent substrate. Results from the calcium transient were obtained prior to the IL-6 results using the same population of cells. The results (FIG. 3) were obtained using a […] ™ Multimodality Imaging System, exposing for 20 seconds, using the chemiluminescent substrate and the luminescent signal reporter (anti-IL-6 labelled with the enzyme horseradish peroxidise).
# The results were obtained on the […] ™ Multimodality Imaging System, exposing for 20 seconds, using the chemiluminescent substrate and the luminescent signal reporter (anti-IL-6 labelled with the enzyme horseradish peroxidise).
# iv) 5 mg of calcium ionophore A23187 was dissolved in 1 ml of DMSO. The ionophore was subsequently diluted in complete maintenance buffer to give final concentration of ionophore over the range of 1.56-100 μM. Fluo-4 dye was prepared by adding 456 μl DMSO to a 50 μg vial, and the vial was mixed well to provide a Fluo-4 stock concentration of 100 μM. […]
# U2OS cells [3] = assay: Cell-associated IL-6 immunocytochemistry (Cy5 second antibody) combined with intracellular calcium, IN Cell Analyzer 1000; conditions: 4 hours contact; Example 4, FIG. 8
# Method: 4. Combination Assay of Intracellular Calcium and Human Interleukin-6 from Calcium Ionophore A23187-Stimulated U2OS Cells on IN Cell Analyzer 1000 4.1 Materials Anti-IL-6 (R&D Systems) Goat anti-human IgG CY™ 5 linked (GE Healthcare) Calcium ionophore A23187 (Sigma) U2OS cells (European Collection of Cell Cultures, Porton Down, UK) 4.2 Method and Results i) U2OS cells were seeded into 96-well tissue culture plates at 6000 cell/well in 100 μl of complete McKoys media and incubated overnight at 37° C., 5% CO2. ii) Cells were stimulated with A23187 for 8 minutes before measurement of a calcium transient on an IN Cell Analyzer 1000 as described in Example 1. […] The results from this assay were measured on an IN Cell Analyzer 1000 using a 10× objective, 505 light pass dichroic 475/535 filter set 200 ms exposure. […] Cells were contacted with the test agent (calcium ionophore A23187) for 4 hours and cell-associated IL-6 measured post cell-stimulation with test agent. After stimulation with the ionophore, the supernatant was decanted and the cells were washed thoroughly X3 with PBS. […] The results were analysed using an object intensity algorithm (IN Cell Investigator software). […]
# [4] = system: EGFP-NFATc1 transfected U2OS cells; assay: EGFP-NFATc1 translocation assay, Nuclear Trafficking Analysis module; conditions: 60 minutes incubation; FIG. 11 / FIG. 14
# Source text: The present patent specification describes a method for monitoring the NFATC1 signalling pathway with a cell-secreted, cell-associated analyte. The assay method is based on the intracellular translocation of an EGFP-NFATc1 fusion protein in stably transfected mammalian cells. NFATc1 is a transcription factor involved in T-cell signalling and tissue development. […] Following activation with agonists these translocate to the nucleus.
# The NFAT assay is optimised for image acquisition and analysis on the IN Cell Analysis System (GE Healthcare) using the Nuclear Trafficking-Analysis Module, although the assay can be imaged on other systems. The Nuclear Trafficking-Analysis Module measures the degree of EGFP-NFAT translocation from the cytoplasm to the nucleus on the addition of agonists.
# • 1. Incubate the microplate at 37° C., 5% CO2 and 95% humidity. • 2. The day before commencing the assay, seed at 1×10^4 cells per well in 200 μl of growth medium. Incubate for 24 hours at 37° C. If one of the wells on the cell plate is used for flat field correction, it should not contain cells. • 3. […]
# • 1. […] Cells were contacted with test agent for a further 3-18 hours and cell associated TNF, IL-8 or PDGF was measured post stimulation with test agent. • 8. […] The results were analysed using an object intensity algorithm (IN Cell Investigator software). […]
# [5] = system: EGFP-NFAT1c transfected U2OS cells; assay: Cell-associated PDGF immunofluorescence combined with EGFP-NFAT1c translocation; conditions: further 3-18 hours contact; FIG. 12
# Method: • 1. The day before commencing the assay, seed EGFP-NFATc1 transfected U2OS cells at 1×10^4 cellsper well in 200 μl of growth medium. • 2. On the day of the assay, prepare the test agent (ionomycin, ionomycin+PMA, A23187). These samples are typically prepared in assay medium. • 3. Decant the growth medium from the cell plate, removing all excess liquid and add 200 μl. Using the cell culture medium, wash the cells. Decant the wash. • 4. Add […] assay medium containing test agent. Incubate for 60 minutes. • 5. The total volume is 200 μl. After the suitable incubation period, image the plate on the IN Cell Analyzer 1000 using appropriate filters and dichroic mirror. • 6. Carry out the data analysis using the Nuclear Trafficking Analysis module. • 7. Cells were contacted with test agent for a further 3-18 hours and cell associated TNF, IL-8 or PDGF was measured post stimulation with test agent. • 8. After stimulation with the test agent, the supernatant was decanted and the cells were washed ×3 with PBS. […] The results were analysed using an object intensity algorithm (IN Cell Investigator software). […]
Compound,"intracellular calcium compared with the unstimulated (zero ionophore) control (U2OS cells [1]; 1.56 μM ionophore, 8 minutes stimulation, FIG. 7)","intracellular calcium with increasing concentration of the ionophore (U2OS cells [1]; Example 4, FIG. 8)",cytosolic intracellular calcium (emitted fluorescence of Fluo-4) (U2OS cells [1]),cell-associated IL-6 (U2OS cells [2]),cell-associated IL-6 with increasing concentration of the ionophore (U2OS cells [3]),EGFP-NFAT1c translocation [4],cell-associated PDGF release [5]
"CNc1ccc2oc(C[C@H]3O[C@@]4(CC[C@H]3C)O[C@H]([C@H](C)C(=O)c3ccc[nH]3)[C@H](C)C[C@H]4C)nc2c1C(=O)O [calcium ionophore A23187, Calcium ionophore A23187]",increase in intracellular calcium,dose-dependent rise,increase in cytosolic intracellular calcium,increase in cell-associated IL-6,dose-dependent rise,EGFP-NFAT1c cell response,–
"NCCc1c[nH]cn1 [histamine, Histamine]",–,–,increase in cytosolic intracellular calcium,increase in cell-associated IL-6,–,–,–
"C[C@H](CCC(=O)O)C[C@H](C)C[C@H](C)C(=O)/C=C(\O)[C@H](C)C[C@H](C)C/C=C/[C@@H](C)[C@@H](O)[C@@H](C)[C@@H](O)C[C@@H]1CC[C@@](C)([C@H]2CC[C@@](C)([C@@H](C)O)O2)O1 [ionomycin, Ionomycin]",–,–,–,–,–,EGFP-NFAT1c cell response,PDGF release
